Data as given in patent US20260183429A1, “COMPOSITIONS FOR MODULATING ACETYLATED TUBULIN LEVELS AND METHODS THEREOF” (THE TRUSTEES OF COLUMBIA UNIVERSITY IN THE CITY OF NEW YORK, priority 2023, published 2026).
Marks after values point to notes of the source that are not given here. Values belong to the compound of their own block, whether it stands above or below them.

Assays:
Type in all cases: cell-based, mouse
[1] = test system: MFN2 KO MEFs; assay: Mitochondrial morphology, motility, distribution and association with MTs in MFN2 KO MEFs; conditions: MFN2 KO cells
Experimental: For immunofluorescence staining of the MT cytoskeleton, cells were fixed in ice cold MetOH for 10′ prior to rehydration in PBS buffer. For all other staining, cells were fixed in 4% PFA for 15 min and permeabilized with 0.1% Triton X-100 for 5 min at R.T. Cells were then washed in PBS, blocked in 2% FBS and 2% BSA in PBS for 1 h, stained with primary antibodies overnight at 4° C. followed by secondary antibodies for 1 h. Mounted samples were observed using a Zeiss LSM 800 confocal microscope equipped with Airyscan module, using a 63× objective (Plan-Apochromat, NA 1.4). Z stack (0.2 um) images were acquired and processed using Zen Blue 2.1 software prior to analysis by ImageJ software. For 3D reconstruction, mitochondrial networks in individual cells were quantified by analyzing the network volume using Imaris software (Bitplane, Concord, MA). For line scan analysis, a line was drawn, and intensity was measured represented as gray values. The amount of fluorescence of the colocalizing pixels in each channel (Mander's coefficient) was calculated using ImageJ. The file was opened, and channels were split. Each select file was changed to 8-bit greyscale and max projection images was generated. Colocalization was assessed by Plugin co-localization finder. To calculate number of ATAT1 foci, each image was converted into an 8-bit greyscale image and ATAT1 signal thresholded until the foci appeared isolated from the background in a binary image. Both channels were then merged into one and the number of foci localizing in the merged stack quantified. To calculate ATAT1 localization with MFN2 on mitochondria, numbers of ATAT1 and MFN2 foci were quantified on each channel individually. Both channels were then merged into one and number of foci in the merged stack analyzed and quantified on mitochondria.
(§1) Mitochondria were labeled using MitoTracker™ Red CMROX according to manufacturer protocol (ThermoFisher Scientific) and detected by epifluorescence microscope equipped with 60× objective lens (Olympus IX81) and a monochrome CCD camera (Sensicam QE, Cooke Corporation). Aspect ratio (length/width) were measured in unedited image files by using Image J/FIJI. Brightness and contrast of the images were adjusted to optimize visualization of the mitochondrial segments and to reduce background noise. After selecting an individual cell, the Analyze Particles function (pixel size 10-infinity; circularity 0.00-1.00) was used to count the number of noncontiguous, discrete particles, and describe their shape. For mitochondrial distribution and displacement velocity mitochondria were live imaged for 3 min at 2 sec/frame at 37° C. A customized Mitoplot software was used for analyzing mitochondrial distribution by defining the center of cell and drawing a line towards periphery. Manual tracking plug-in in ImageJ/FIJI was used to analyze mitochondrial displacement velocity by selecting individual mitochondria.

[2] = test system: MFN2 KO MEFs; assay: Lipidomics of lipid classes in MFN2 KO MEFs; conditions: MFN2 KO cells; TSA 10 nM
[3] = test system: MFN2 KO MEFs; assay: Mitochondria fusion by mitoDendra photoconversion in MFN2 KO MEFs; conditions: MFN2 KO cells; TSA 10 nM, 6 h
From the text: Dendra2 photoconversion and imaging utilized the protocol from Evrogen. Images were acquired with an Olympus spinning disk microscope EC-Plan-Neofluar 40X/1.3 oil. Z-stack acquisitions over-sampled each optical slice twice, and the Zen 2009 image analysis software was used for maximum z-projections. The 488 nm laser line and the 561 nm laser excited Dendra2 in the unconverted state and photo-converted state, respectively. To photo-switch Dendra2, a region was illuminated with the 405 nm line (4% laser power) for 90 bleaching iterations. The corrected total fluorescence intensity of both the channels was calculated using ImageJ and colocalization percentage was calculated.

[4] = test system: MFN2 KO MEFs; assay: MT plus end dynamics, GFP-tubulin live imaging, MFN2 KO MEFs
Experimental: (§2) Fibroblasts were transfected with pMSCV-puro-tagGFP-C4 α-tubulin plasmid to generate a green fluorescent protein (GFP)-tubulin stably expressing cell line. Live imaging of MT dynamics in transfected cells was performed at 37° C. and 5% CO2 for 5 min (5 s/f) with a 100×
(§3) PlanApo objective (numerical aperture 1.45) and an iXon X3 CCD camera (Andor, Belfast, United Kingdom) on a Nikon Eclipse Ti microscope controlled by Nikon's NIS-Elements software (Nikon, Tokyo, Japan). Movies were analyzed by ImageJ using a manual tracking plug-in. Dynamicity is calculated by dividing the sum of growth and shrinkage distances by MT lifetime.

[5] = test system: Iqgap1 KO MEFs; assay: Mitochondria dynamics in Iqgap1 KO MEFs; conditions: 10 nM TSA, 6 h, compared with TTL silencing
Experimental: as §1

[6] = test system: acetylated tubulin in MFN2 KO MEFs; assay: Acetylated tubulin levels by immunoblot and immunofluorescence in MFN2 KO MEFs; conditions: MFN2 KO cells; 10 nM TSA, 6 h and 12 h (FIGS. 2A-2D)
Experimental: (§4) Cells were fixed in 4% PFA for 15 min and permeabilized with 0.1% Triton X-100 for 5 min at R.T. For the MT cytoskeleton, cells were fixed in ice cold MetOH for 10′ prior to rehydration in PBS buffer. Cells were then washed in PBS, blocked in 2% FBS and 2% BSA in PBS for 1 h, stained with primary antibodies overnight at 4° C. followed by secondary antibodies for 1 h. Mounted samples were observed using a Zeiss LSM 800 confocal microscope using a 63× objective (Plan-Apochromat, NA 1.4). Z stack (0.5 um) images were acquired. To calculate the Mitotic Index as percentage, the number of cells in mitosis were divided by the total number of cells multiplied by 100. […] ROIs were selected in both channels to calculate mean fluorescence and integrated density prior to calculating corrected total fluorescence intensity (CTCF=Integrated Density−(Area of selected cell*Mean fluorescence of background readings). For measuring MT associated MB11 intensity, an ROI was selected along individual tyrosinated MTs using ImageJ and GTP tubulin (hMB11) pixel intensity was calculated along the tyrosinated tubulin signal and corrected by subtracting out background signal fluorescence intensity.
(§5) Cells were lysed in Laemmli sample buffer and boiled at 96° C. for 5 min. […] Image acquisition was performed with an Odyssey imaging system (LI-COR Biosciences, NE) and analyzed with Odyssey software.

[7] = test system: MFN2 KO MEFs; assay: MAM-dependent phospholipid synthesis, 3H-Ser incorporation into PtdSer and PtdEtn; conditions: TSA 10 nM, 6 h, after 2 h and 4 h
Experimental: Both mitochondria and ER play key roles in the synthesis of phosphatidylserine (PtdSer), phosphatidylethanolamine (PtdEtn), and phosphatidylcholine (PtdCho). PtdSer is synthesized in the MAM; it then translocates to mitochondria, where it is converted to PtdEtn; PtdEtn then translocates back to the MAM, to generate PtdCho. To test the effect of MFN2 on phospholipid synthesis mediated by MAM, WT and MFN2 KO MEF cells were incubated for 2 h with serum-free medium to ensure removal of exogenous lipids. The medium was then replaced with MEM containing […] of 3H-serine for 2, 4 and 6 h. The cells were washed and collected in DPBS, pelleted at 2500×g for 5 min at 4° C., and resuspended in 0.5 ml water, removing a small aliquot for protein quantification. Lipid extraction was done by the Bligh and Dyer method. Briefly, three volumes of chloroform/methanol 2:1 were added to the samples and vortexed. […] The spots corresponding to the relevant phospholipids (identified using co-migrating standards) were scraped and counted in a scintillation counter (Packard Tri-Carb 2900TR). […] Therefore, to directly test the effect of MFN2 mutations on phospholipid synthesis mediated by MAM, control and MFN2 KO fibroblasts were incubated in medium containing 3H-serine and measured the incorporation of the label into newly synthesized 3H-PtdSer and 3H-PtdEtn after 2 and 4 h.

[8] = test system: acetylated tubulin in Iqgap1 KO MEFs; assay: Acetylated tubulin levels in Iqgap1 KO MEFs; conditions: 10 nM TSA, 6 h or 12 h
Experimental: as §4, §5

[9] = test system: WT MEFs; assay: MT plus end dynamics, GFP-tubulin live imaging, WT MEFs; conditions: WT + TSA
Experimental: as §2, §3

[10] = test system: Iqgap1 KO MEFs; assay: MT plus end dynamics, GFP-tubulin live imaging, Iqgap1 KO MEFs; conditions: Iqgap1 KO + TSA
Experimental: as §2, §3

central and peripheral mitochondrial displacement velocity ([1]; TSA 10 nM, 6 h): normalized
Structure (SMILES): CC(/C=C/C(=O)NO)=C\[C@@H](C)C(=O)c1ccc(N(C)C)cc1 [TSA, trichostatin A]
co-localization of mitochondria with MTs ([1]; 10 nM TSA, 6 h (FIGS. 2E, 2F)): restored
mitochondria distribution ([1]; TSA 10 nM, 6 h): normalized
mitochondria elongated morphology ([1]; TSA 10 nM, 6 h): partially reestablished
changes in sphingomyelin, cholesterol, cholesteryl esters and ceramide levels [2]: rescued
mitochondria fusion [3]: completely failed to recover
% Growth ([4]; MFN2 KO + TSA): 22.4 ± 0.90^c,y %
% Pause ([4]; MFN2 KO + TSA): 62.13 ± 1.68^c,y %
% Shrinkage ([4]; MFN2 KO + TSA): 16.05 ± 1.42^c,y %
Catastrophe frequency ([4]; MFN2 KO + TSA): 0.05 ± 0.006 s⁻¹
Growth rate ([4]; MFN2 KO + TSA): 0.08 ± 0.005^a,y μm/s
MT dynamicity ([4]; MFN2 KO + TSA): 4.858 ± 0.46^c,y μm/min
MT lifetime ([4]; MFN2 KO + TSA): 60.25 ± 1.43 ^ s
Rescue freq. ([4]; MFN2 KO + TSA): 0.09 ± 0.004 s⁻¹
Shrinkage rate ([4]; MFN2 KO + TSA): 0.08 ± 0.005^a,y μm/s
MT dynamics ([4]; MFN2 KO cells + TSA (Table 3)): normalized
mitochondria dynamics [5]: rescue of mitochondria dynamics
acetylated tubulin levels [6]: normalized
MAM-dependent phospholipid synthesis (3H-Ser into 3H-PtdSer and 3H-PtdEtn) [7]: failed to normalize
acetylated tubulin levels [8]: restoration of acetylated tubulin levels
% Growth ([9]; Table 3): 20.04 ± 1.28^c,x %
% Pause ([9]; Table 3): 63.5 ± 0.64^c,x %
% Shrinkage ([9]; Table 3): 18.25 ± 1.37^c,x %
Catastrophe frequency ([9]; Table 3): 0.05 ± 0.004 s⁻¹
Growth rate ([9]; Table 3): 0.04 ± 0.007 μm/s
MT lifetime ([9]; Table 3): 56.5 ± 3.66 s
Rescue freq. ([9]; Table 3): 0.07 ± 0.006 s⁻¹
Shrinkage rate ([9]; Table 3): 0.07 ± 0.008 μm/s
% Growth ([9]; Table 4 (Iqgap1 series)): 23.75 ± 0.85^b,x %
% Pause ([9]; Table 4 (Iqgap1 series)): 50 ± 2.48^b,x %
% Shrinkage ([9]; Table 4 (Iqgap1 series)): 27.25 ± 3.19%
Catastrophe frequency ([9]; Table 4 (Iqgap1 series)): 0.06 ± 0.003 s⁻¹
Growth rate ([9]; Table 4 (Iqgap1 series)): 0.04 ± 0.004 μm/s
MT dynamicity ([9]; Table 4 (Iqgap1 series)): 3.32 ± 0.24^a,x μm/min
MT lifetime ([9]; Table 4 (Iqgap1 series)): 49.5 ± 2.32 s
Rescue freq. ([9]; Table 4 (Iqgap1 series)): 0.07 ± 0.007 s⁻¹
Shrinkage rate ([9]; Table 4 (Iqgap1 series)): 0.03 ± 0.004 μm/s
% Growth [10]: 25.25 ± 1.54^b,y %
% Pause [10]: 51.75 ± 1.10^b,y %
% Shrinkage [10]: 22.5 ± 0.86^b,y %
Catastrophe frequency [10]: 0.06 ± 0.004 s⁻¹
Growth rate [10]: 0.095 ± 0.006^a,y μm/s
MT dynamicity [10]: 3.77 ± 0.33^b,y μm/min
MT lifetime [10]: 51.25 ± 1.79 s
Rescue freq. [10]: 0.08 ± 0.006 s⁻¹
Shrinkage rate [10]: 0.09 ± 0.004 μm/s

mitochondrial displacement velocity, distribution, aspect ratio and fusion compared with TSA ([1]; tubacin 20 μM, 6 h (FIGS. 3F-3I)): Identical results
Structure (SMILES): O=C(CCCCCCC(=O)Nc1ccc([C@H]2O[C@@H](CSc3nc(-c4ccccc4)c(-c4ccccc4)o3)C[C@@H](c3ccc(CO)cc3)O2)cc1)NO [tubacin, Tubacin]
